The CheMixHub viscosity set
± gives the uncertainty stated by the source.

Assay: xn = mol fraction of the nth substance listed

c1ccc2ncccc2c1 + Oc1ccccc1Cl
Details | viscosity [mPa·s]
293.15 K, 101 kPa, x2 = 0.1686 | 6.62 ± 0.07
293.15 K, 101 kPa, x2 = 0.3263 | 13 ± 0.17
293.15 K, 101 kPa, x2 = 0.4251 | 23.62 ± 0.4
293.15 K, 101 kPa, x2 = 0.4893 | 33.45 ± 0.69
293.15 K, 101 kPa, x2 = 0.5043 | 35.1 ± 0.69
293.15 K, 101 kPa, x2 = 0.534 | 36.9 ± 0.76
293.15 K, 101 kPa, x2 = 0.5506 | 37.25 ± 0.79
293.15 K, 101 kPa, x2 = 0.5803 | 36.62 ± 0.78
293.15 K, 101 kPa, x2 = 0.6353 | 31.62 ± 0.67
293.15 K, 101 kPa, x2 = 0.7227 | 21.85 ± 0.39
293.15 K, 101 kPa, x2 = 0.8671 | 9.95 ± 0.14
298 K, 101.3 kPa, x1 = 0.0761 | 4.871 ± 0.061
298 K, 101.3 kPa, x1 = 0.1549 | 7.882 ± 0.11
298 K, 101.3 kPa, x1 = 0.2343 | 11.68 ± 0.23
298 K, 101.3 kPa, x1 = 0.3348 | 19.63 ± 0.51
298 K, 101.3 kPa, x1 = 0.4286 | 26.3 ± 0.77
298 K, 101.3 kPa, x1 = 0.5274 | 21.74 ± 0.58
298 K, 101.3 kPa, x1 = 0.6364 | 12.94 ± 0.27
298 K, 101.3 kPa, x1 = 0.7447 | 8.205 ± 0.13
298 K, 101.3 kPa, x1 = 0.8898 | 4.628 ± 0.055
303 K, 101.3 kPa, x1 = 0.0761 | 4.063 ± 0.039
303 K, 101.3 kPa, x1 = 0.1549 | 6.073 ± 0.069
303 K, 101.3 kPa, x1 = 0.2343 | 9.042 ± 0.13
303 K, 101.3 kPa, x1 = 0.3348 | 14.39 ± 0.32
303 K, 101.3 kPa, x1 = 0.4286 | 18.2 ± 0.48
303 K, 101.3 kPa, x1 = 0.5274 | 16.12 ± 0.38
303 K, 101.3 kPa, x1 = 0.6364 | 10.29 ± 0.17
303 K, 101.3 kPa, x1 = 0.7447 | 6.433 ± 0.069
303 K, 101.3 kPa, x1 = 0.8898 | 4.058 ± 0.034
303.15 K, 101 kPa, x2 = 0.1686 | 4.87 ± 0.05
303.15 K, 101 kPa, x2 = 0.3263 | 9.11 ± 0.1
303.15 K, 101 kPa, x2 = 0.4251 | 14.4 ± 0.18
303.15 K, 101 kPa, x2 = 0.4893 | 17.92 ± 0.28
303.15 K, 101 kPa, x2 = 0.5043 | 18.4 ± 0.28
303.15 K, 101 kPa, x2 = 0.534 | 19 ± 0.3
303.15 K, 101 kPa, x2 = 0.5506 | 19.01 ± 0.3
303.15 K, 101 kPa, x2 = 0.5803 | 18.88 ± 0.29
303.15 K, 101 kPa, x2 = 0.6353 | 17.42 ± 0.25
303.15 K, 101 kPa, x2 = 0.7227 | 12.82 ± 0.17
303.15 K, 101 kPa, x2 = 0.8671 | 6.41 ± 0.08
308 K, 101.3 kPa, x1 = 0.0761 | 3.469 ± 0.032
308 K, 101.3 kPa, x1 = 0.1549 | 5.006 ± 0.046
308 K, 101.3 kPa, x1 = 0.2343 | 7.403 ± 0.087
308 K, 101.3 kPa, x1 = 0.3348 | 11.49 ± 0.2
308 K, 101.3 kPa, x1 = 0.4286 | 14.09 ± 0.3
308 K, 101.3 kPa, x1 = 0.5274 | 12.37 ± 0.24
308 K, 101.3 kPa, x1 = 0.6364 | 8.401 ± 0.11
308 K, 101.3 kPa, x1 = 0.7447 | 5.506 ± 0.045
308 K, 101.3 kPa, x1 = 0.8898 | 3.581 ± 0.03
313 K, 101.3 kPa, x1 = 0.0761 | 2.998 ± 0.027
313 K, 101.3 kPa, x1 = 0.1549 | 4.205 ± 0.04
313 K, 101.3 kPa, x1 = 0.2343 | 6.048 ± 0.061
313 K, 101.3 kPa, x1 = 0.3348 | 9.267 ± 0.14
313 K, 101.3 kPa, x1 = 0.4286 | 11.03 ± 0.19
313 K, 101.3 kPa, x1 = 0.5274 | 9.852 ± 0.15
313 K, 101.3 kPa, x1 = 0.6364 | 7.017 ± 0.074
313 K, 101.3 kPa, x1 = 0.7447 | 4.762 ± 0.041
313 K, 101.3 kPa, x1 = 0.8898 | 3.171 ± 0.027
313.15 K, 101 kPa, x2 = 0.1686 | 3.71 ± 0.04
313.15 K, 101 kPa, x2 = 0.3263 | 6.35 ± 0.06
313.15 K, 101 kPa, x2 = 0.4251 | 8.96 ± 0.09
313.15 K, 101 kPa, x2 = 0.4893 | 10.47 ± 0.13
313.15 K, 101 kPa, x2 = 0.5043 | 10.73 ± 0.12
313.15 K, 101 kPa, x2 = 0.534 | 10.95 ± 0.12
313.15 K, 101 kPa, x2 = 0.5506 | 10.98 ± 0.12
313.15 K, 101 kPa, x2 = 0.5803 | 10.89 ± 0.12
313.15 K, 101 kPa, x2 = 0.6353 | 10 ± 0.11
313.15 K, 101 kPa, x2 = 0.7227 | 7.64 ± 0.08
313.15 K, 101 kPa, x2 = 0.8671 | 4.33 ± 0.05
318 K, 101.3 kPa, x1 = 0.0761 | 2.614 ± 0.022
318 K, 101.3 kPa, x1 = 0.1549 | 3.59 ± 0.031
318 K, 101.3 kPa, x1 = 0.2343 | 4.979 ± 0.049
318 K, 101.3 kPa, x1 = 0.3348 | 7.306 ± 0.11
318 K, 101.3 kPa, x1 = 0.4286 | 8.786 ± 0.15
318 K, 101.3 kPa, x1 = 0.5274 | 7.927 ± 0.12
318 K, 101.3 kPa, x1 = 0.6364 | 5.922 ± 0.054
318 K, 101.3 kPa, x1 = 0.7447 | 4.17 ± 0.031
318 K, 101.3 kPa, x1 = 0.8898 | 2.824 ± 0.022

O=C([O-])[O-].[Na+].[Na+] + [2H]O[2H]
viscosity [mPa·s], 101 kPa
Details | x1 = 0.009 | x1 = 0.018 | x1 = 0.031 | x1 = 0.041
298.15 K | 1.4 ± 0.014 | 1.847 ± 0.019 | 2.881 ± 0.029 | 4.233 ± 0.042
308.15 K | 1.094 ± 0.011 | 1.443 ± 0.015 | 2.174 ± 0.022 | 3.115 ± 0.031
318.15 K | 0.895 ± 0.009 | 1.167 ± 0.012 | 1.725 ± 0.017 | 2.435 ± 0.024

CCC(C)=O + c1ccccc1
Details | viscosity [mPa·s]
293.15 K, 101 kPa, x1 = 0.2 | 0.569 ± 0.015
293.15 K, 101 kPa, x1 = 0.4 | 0.511 ± 0.014
293.15 K, 101 kPa, x1 = 0.5 | 0.487 ± 0.013
293.15 K, 101 kPa, x1 = 0.6 | 0.471 ± 0.013
293.15 K, 101 kPa, x1 = 0.8 | 0.435 ± 0.012
298 K, 101.33 kPa, x2 = 0.1513 | 0.3919 ± 0.0054
298 K, 101.33 kPa, x2 = 0.2663 | 0.4141 ± 0.0057
298 K, 101.33 kPa, x2 = 0.2941 | 0.4175 ± 0.0057
298 K, 101.33 kPa, x2 = 0.4321 | 0.4408 ± 0.006
298 K, 101.33 kPa, x2 = 0.5597 | 0.4674 ± 0.0063
298 K, 101.33 kPa, x2 = 0.6057 | 0.4775 ± 0.0065
298 K, 101.33 kPa, x2 = 0.7302 | 0.5097 ± 0.0069
298 K, 101.33 kPa, x2 = 0.8777 | 0.5571 ± 0.0074
298.15 K, 101 kPa, x2 = 0.106 | 0.4072 ± 0.0044
298.15 K, 101 kPa, x2 = 0.197 | 0.4173 ± 0.0045
298.15 K, 101 kPa, x2 = 0.3 | 0.4324 ± 0.0046
298.15 K, 101 kPa, x2 = 0.4 | 0.4487 ± 0.0048
298.15 K, 101 kPa, x2 = 0.5 | 0.4672 ± 0.0049
298.15 K, 101 kPa, x2 = 0.615 | 0.4908 ± 0.0052
298.15 K, 101 kPa, x2 = 0.694 | 0.508 ± 0.0053
298.15 K, 101 kPa, x2 = 0.793 | 0.5355 ± 0.0056
298.15 K, 101 kPa, x2 = 0.895 | 0.5683 ± 0.0059
299.15 K, 101.3 kPa, x2 = 0.098 | 0.41 ± 0.011
299.15 K, 101.3 kPa, x2 = 0.198 | 0.425 ± 0.011
299.15 K, 101.3 kPa, x2 = 0.298 | 0.443 ± 0.012
299.15 K, 101.3 kPa, x2 = 0.398 | 0.455 ± 0.012
299.15 K, 101.3 kPa, x2 = 0.498 | 0.474 ± 0.013
299.15 K, 101.3 kPa, x2 = 0.599 | 0.497 ± 0.013
299.15 K, 101.3 kPa, x2 = 0.699 | 0.519 ± 0.014
299.15 K, 101.3 kPa, x2 = 0.799 | 0.546 ± 0.014
299.15 K, 101.3 kPa, x2 = 0.899 | 0.584 ± 0.015
303.15 K, 101 kPa, x1 = 0.1023 | 0.538 ± 0.004
303.15 K, 101 kPa, x1 = 0.2 | 0.498 ± 0.013
303.15 K, 101 kPa, x1 = 0.2042 | 0.509 ± 0.004
303.15 K, 101 kPa, x1 = 0.395 | 0.467 ± 0.004
303.15 K, 101 kPa, x1 = 0.4 | 0.454 ± 0.012
303.15 K, 101 kPa, x1 = 0.5 | 0.434 ± 0.012
303.15 K, 101 kPa, x1 = 0.5129 | 0.444 ± 0.004
303.15 K, 101 kPa, x1 = 0.6 | 0.42 ± 0.011
303.15 K, 101 kPa, x1 = 0.6822 | 0.42 ± 0.004
303.15 K, 101 kPa, x1 = 0.8 | 0.391 ± 0.011
303.15 K, 101 kPa, x1 = 0.853 | 0.396 ± 0.004
307.35 K, 101.33 kPa, x1 = 0.0925 | 0.501 ± 0.0092
307.35 K, 101.33 kPa, x1 = 0.2405 | 0.462 ± 0.0089
307.35 K, 101.33 kPa, x1 = 0.3178 | 0.446 ± 0.0088
307.35 K, 101.33 kPa, x1 = 0.4477 | 0.424 ± 0.0086
307.35 K, 101.33 kPa, x1 = 0.5084 | 0.41 ± 0.0085
307.35 K, 101.33 kPa, x1 = 0.616 | 0.394 ± 0.0084
307.35 K, 101.33 kPa, x1 = 0.7356 | 0.378 ± 0.0082
308.15 K, 101 kPa, x1 = 0.2 | 0.471 ± 0.013
308.15 K, 101 kPa, x1 = 0.4 | 0.431 ± 0.012
308.15 K, 101 kPa, x1 = 0.5 | 0.414 ± 0.011
308.15 K, 101 kPa, x1 = 0.6 | 0.401 ± 0.011
308.15 K, 101 kPa, x1 = 0.8 | 0.373 ± 0.01
318.15 K, 101 kPa, x1 = 0.2 | 0.421 ± 0.011
318.15 K, 101 kPa, x1 = 0.4 | 0.388 ± 0.01
318.15 K, 101 kPa, x1 = 0.5 | 0.373 ± 0.01
318.15 K, 101 kPa, x1 = 0.6 | 0.362 ± 0.01
318.15 K, 101 kPa, x1 = 0.8 | 0.339 ± 0.009
